The conditions of data set [1]: low sustained systemic release; cited from earlier work.
The conditions of data set [2]: in vivo; cited from earlier work.
For data set [3] the following is noted: cited from earlier work.
For data set [4] the following is noted: cited from earlier work. The source holds these as a separate data set.
Data set [5] relates to tuberculosis infection. Particulars: cited from earlier work; for effect on tuberculosis infection: alone at 20 mg/kg per day; for TB lesion in the spleen compared with pyrazinamide alone / bacteria in the lungs compared with pyrazinamide alone: simultaneous administration with pyrazinamide.
Data set [6] has as its system tuberculosis bacteria. Particulars: treated for 3 days, versus untreated sample; cited from earlier work.
The conditions of data set [7]: intravenous, doses from 5 to 50 grams or higher per day.
Data set [8] concerns M. tuberculosis. As to conditions: flow cytometry; cited from earlier work. (In general: Flow cytometry measures light scatter and fluorescence of single cells or particles in a stream.)
The test system of data set [9] is creatine kinase. As to conditions: compared with the placebo group; cited from earlier work.
In data set [10] the test system is mycobacterium tuberculosis. Put plainly: Breast cancer patient with pulmonary TB given high dose Vitamin C. It is filed as in vivo, human. From the text:
In the presence of above reductants, ferrous ions are produced by reduction of ferric ions (#2). One reductant known to drive the Fenton reaction is Vitamin C, also known as ascorbic acid. As a pro-oxidant, vitamin C can drive the Fenton reaction by reducing ferric ions to ferrous ions as shown in the above formula and FIG. 3. Most iron within the cell is bound within porphyrins and proteins, as ferric ions that are sparingly soluble and ferrous ions are very reactive as well as more soluble. To examine the role of iron concentration in vitamin C bactericidal activity, the concentrations of bound iron and reduced and oxidized free iron were measured in tuberculosis cultures treated with vitamin C. […] This increase in free iron levels was also the dose which peaked at day three. […] We treated a person has traveled to Southeast Asia and was diagnosed with left breast cancer. It was an early case with discrete lymph node metastasis. They have cough with blood tinged sputum, night sweats, and weight loss. […] By the time we made the TB diagnosis they were treated with high dose Vitamin C 10 to 25 grams in 500 ml normal saline every day for a total of 10 doses as an adjuvant therapy for cancer. They underwent local injection of anti-breast cancer chemotherapy therapeutic agents with insulin and local heat application with magnetic heat waves and hyperbaric therapy using soft air HBO chamber.
This person has traveled to Southeast Asia and was diagnosed with left breast cancer. It was an early case with discrete lymph node metastasis. They have cough with blood tinged sputum, night sweats, and weight loss. […] By the time we made the TB diagnosis they were treated with high dose Vitamin C 10 to 25 grams in 500 ml normal saline every day for a total of 10 doses as an adjuvant therapy for cancer. They underwent local injection of anti-breast cancer chemotherapy therapeutic agents with insulin and local heat application with magnetic heat waves and hyperbaric therapy using soft air HBO chamber.
After the lab came with mycobacterium tuberculosis, we wanted to see why the cough has gone with no sputum. […] We sent the sputum again, and came negative for mycobacterium tuberculosis after culture. This also made us to diagnose that the lesion in the lungs was not a metastatic breast cancer. The patient was treated with chemotherapy, local injection of breast mass and lymph nodes with high dose Vitamin C chemotherapy therapeutic agents. After completion of therapy, they were sent to surgery for the removal of the remaining lesion mass in the breast which had shrunk considerably, and axillary lymph node resection. They were seen 3 months after surgery. Their chest X ray was negative and so also sputum M. tuberculosis bacteria. They were free of cancer and tuberculosis.

Data set [11] has as its system plasma C reactive protein (CRP). As to conditions: smokers; cited from earlier work.
Data set [12] relates to tuberculosis cultures. As to conditions: compared to the untreated cultures after three days; cited from earlier work.
For data set [13] the following is noted: cited from earlier work. This is another data set of the same source.
The test system of data set [14] is M. tuberculosis. As to conditions: after 9 days; cited from earlier work.
The test system of data set [15] is endothelial dysfunction. As to conditions: 2,000 mg/day for two weeks; cited from earlier work.
Data set [16] has as its system Methicillin resistant staphylococcus aureus. Put plainly: Treatment of MRSA infected patients. Particulars: with broad spectrum antibiotics, insulin induced hypoglycemia and hyperbaric therapy.
Data set [17] deals with TB bacteria. As to conditions: cited from earlier work.
In data set [18] the test system is TB bacteria. As to conditions: cited from earlier work. The source holds these as a separate data set.
Data set [19] has as its system monkey and human cells. Particulars: cited from earlier work.
Data set [20] addresses TB proteasome (Mycobacterium tuberculosis, UniProt P9WHT9). Particulars: Lin et al 2009; cited from earlier work.
Data set [21] concerns malaria. As to conditions: 3 grams (about 50 mg/kg) over a 3 to 5 day period; cited from earlier work.
The subject of data set [22] is radiation resistant breast cancer cells. As to conditions: cells pre-loaded with iron after incubation with holotransferrin, cited from earlier work.
In data set [23] the test system is pathogenic organism's. As to conditions: cited from earlier work.
The conditions of data set [24]: at atmospheric pressure; cited from earlier work.
Data set [25] deals with Mycobacterium tuberculosis outside cells. Particulars: cited from earlier work.
The subject of data set [26] is Mycobacterium tuberculosis bacteria in the monocytes. As to conditions: cited from earlier work.
Data set [27] deals with M. tuberculosis. Particulars: cited from earlier work.
Setting [28] is: 150 mg/kg per day, one month of treatment.

These results are taken from patent US20160074480A1, “INNOVATIVE METHODS OF TREATMENTING TUBERCULOSIS” (priority 2015, published 2016).

Where two headings read alike, the source gives them in different places.

Sequence of TB proteasome (P9WHT9 58-291): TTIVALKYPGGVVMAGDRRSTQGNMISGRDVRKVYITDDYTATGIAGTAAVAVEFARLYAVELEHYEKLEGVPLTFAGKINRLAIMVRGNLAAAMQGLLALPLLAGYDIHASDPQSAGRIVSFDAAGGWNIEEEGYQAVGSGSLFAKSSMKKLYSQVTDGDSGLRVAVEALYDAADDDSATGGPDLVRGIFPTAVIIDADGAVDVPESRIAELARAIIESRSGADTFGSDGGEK
Sequence of TB proteasome (P9WHU1 whole entry partner): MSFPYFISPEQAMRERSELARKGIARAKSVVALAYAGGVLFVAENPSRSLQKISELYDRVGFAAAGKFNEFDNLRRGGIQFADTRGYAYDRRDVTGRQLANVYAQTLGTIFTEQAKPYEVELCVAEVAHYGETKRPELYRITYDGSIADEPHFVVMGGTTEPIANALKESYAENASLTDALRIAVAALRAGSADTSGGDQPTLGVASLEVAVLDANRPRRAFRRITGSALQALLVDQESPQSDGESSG

For the molecule `O=[N+]([O-])c1ccc(O)c([N+](=O)[O-])c1` [DNP, 2,4, dinitrophenol], in data set [1], the “increase of the therapeutic window” value is “more than 500 fold”.
Regarding `CC[C@@H](CO)NCCN[C@@H](CC)CO` [Ethambutol], the “adverse effects stated in the text” value in data set [2] is “risk of developing optic neuritis”.
For `CO[C@H]1/C=C/O[C@@]2(C)Oc3c(C)c(O)c4c(O)c(c(/C=N/N5CCN(C)CC5)c(O)c4c3C2=O)NC(=O)/C(C)=C\C=C\[C@H](C)[C@H](O)[C@@H](C)[C@@H](O)[C@@H](C)[C@H](OC(C)=O)[C@@H]1C` [Rifampin, Rifampicin], the “Plasma Concentrations (mean±standard deviation)” value in data set [3] (IV 300 mg, 30 min) is 8900 ± 2900 ng/mL; in data set [3] (IV 300 mg, 1 hr to 2 hr), 4900 ± 1300 ng/mL; in data set [3] (IV 300 mg, 4 hr), 2500 ± 1000 ng/mL; in data set [3] (IV 300 mg, 8 hr) it was 1000 ± 600 ng/mL; in data set [3] (IV 300 mg, 12 hr), less than 400 ng/mL; in [3] (IV 600 mg, 30 min), 17400 ± 5100 ng/mL. Moreover, the “Plasma Concentrations (mean±standard deviation)” value in data set [3] (IV 600 mg, 1 hr to 2 hr) was 11700 ± 2800 ng/mL; in [3] (IV 600 mg, 4 hr), 6400 ± 1700 ng/mL; in data set [3] (IV 600 mg, 8 hr), 3500 ± 1400 ng/mL; in [3] (IV 600 mg, 12 hr), 1200 ng/mL. Also, the “ADVERSE EVENT/CONTRAINDICATION” value in data set [2] was “Hepatitis, GI reactions”. Besides, the “concentration of the drug in the blood plasma” value in data set [4] (after increasing the dose) was “higher than expected”. The adverse effects entry in data set [4] (increased dose versus standard dose) is recorded as “did not experience adverse effects”.
On to `NC(=O)c1cnccn1` [pyrazinamide, Pyrazinamide], for which the “ADVERSE EVENT/CONTRAINDICATION” value in [2] is listed as “Hepatitis”. Moreover, in [5] (setting [28]), the “reduction in the lung compared with the control” value is on record as “about 1.5 log10 cfu” and the “reduction in the spleen compared with the control” value was approximately 2 log10 cfu.
Regarding `O=C1O[C@H]([C@@H](O)CO)C(O)=C1O` [Vitamin C, L-ascorbic acid], the “intracellular levels of ferrous ions” value in [6] is given as “up to ten times higher”. Also, the safety and tolerability result in [7] was “safe and well-tolerated”. The “increase in total ROS” value in data set [8] is recorded as “Up to threefold”. The “release of creatine kinase, an indicator of muscle damage” value in [9] was “inhibits the release of creatine kinase”. The outcome of tuberculosis in data set [10] (10 to 25 grams IV every day, total of 10 doses) is on record as “completely cured of tuberculosis”. The cough entry in [10] (by second week) was “completely disappeared”. Besides, the “sputum for mycobacterium tuberculosis after culture” value in data set [10] (repeat sputum after treatment) is “negative”. Also, the “chest X ray” value in data set [10] (third week) is “disappearance of the lesion”. Also, the “reduction in plasma C reactive protein (CRP) concentrations” value in data set [11] is 24%. Also, the “extracellular free iron concentrations” value in data set [12] is given as “nearly four-fold higher”. Besides, the peak plasma concentration in data set [13] (IV infusion up to 50 grams, cancer patients) is 13.4 mM. The peak plasma concentrations in data set [13] (maximum tolerated dose of 3 g every 4 hours taken orally) is reported as 0.22 mM. Moreover, in data set [14], the “DNA damage relative to the untreated culture or culture treated with Vitamin E” value was “tenfold higher” and the “ROS induced DNA damage” value is 17-25%. In addition, in data set [15], the endothelial dysfunction entry was “reversed endothelial dysfunction”. The “outcome of MRSA infection” value in [16] is “complete elimination of the infection”.
Take `CC(=O)Nc1ccc(/C=N/NC(N)=S)cc1` [Thiacetazone]: the “ADVERSE EVENT/CONTRAINDICATION” value in [2] is given as “Severe skin rash among HIV +ve (not recommended)”.
`CC(C)Cc1ccc(C(C)C(=O)O)cc1` (centres unmarked) [ibuprofen]: the “number of TB bacteria detected in the organs” value in data set [17] (mouse, in vivo) is given as “reduced the number of TB bacteria detected in the organs”. For the same molecule, the survival result in data set [17] (versus mice not treated with ibuprofen) was “lived longer”. For the same molecule, in [5], the “effect on tuberculosis infection” value was “little effect”, the “TB lesion in the spleen compared with pyrazinamide alone” value is “further decrease” and the “bacteria in the lungs compared with pyrazinamide alone” value is reported as “lower unit counts”.
Regarding `CCc1cc(C(N)=S)ccn1` [Ethionamide, 2-ethylthioiso-nicotinamide], the “adverse effects stated in the text” value in [2] is “neurotoxicity and fatal hepatotoxicity”.
oxathiazol-2-one: in data set [18], the “effect on TB bacteria” value is reported as “killed the TB bacteria”. The “harm to mammalian cells” value in [19] was “did not appear to harm mammalian cells”. Besides, the “inhibition of the TB proteasome relative to the human proteasome” value in [20] is “about 1,000 times”.
Consider `CC(=O)Oc1ccccc1C(=O)O` [aspirin, Acetylsalicylic acid], for which, in [5], the “effect on tuberculosis infection” value is “little effect”, the “TB lesion in the spleen compared with pyrazinamide alone” value is “further decrease” and the “bacteria in the lungs compared with pyrazinamide alone” value is reported as “statistically significant fewer bacteria”.
As for `C[C@@H]1CC[C@H]2[C@@H](C)C(=O)O[C@@H]3O[C@@]4(C)CC[C@@H]1[C@]32OO4` [artemisinin], in data set [21], the resistance and toxicity result was “no resistance nor did toxicity”. Also, the cancer cell killing in data set [22] (8 hours) was 75%; in [22] (within 24 hours), approximately 100%.
For the molecule `O=[O+][O-]` [ozone], the “molecules of chlorine equal to one molecule of ozone” value in data set [23] is 3000-10,000 molecules. For the same molecule, the “speed of killing pathogenic organisms” value in [23] (compared with chlorine) is reported as 3500 times faster. Further, the “time to break down from O3 to O2+O1” value in data set [24] is not above 20 min.
In the case of `O=C1[C@H](CC[C@H](O)c2ccc(F)cc2)[C@@H](c2ccc(O)cc2)N1c1ccc(F)cc1` [Ezetimibe, (3R,4S)-1-(4-fluorophenyl)-3-[(3S)-3-(4-fluorophenyl)-3-hydroxypropyl]-4-(4-hydroxyphenyl) zetidin-2-one], the “killing of Mycobacterium tuberculosis outside cells” value in data set [25] is listed as “directly killing”. Moreover, the “survival and proliferation of Mycobacterium tuberculosis in the monocytes” value in data set [26] was “significantly inhibiting the survival and proliferation”.
With `N[C@@H](CS)C(=O)O` [cysteine], the “intracellular levels of ferrous ions” value in data set [6] is on record as “up to ten times higher”.

B1: IFN-Y^− 1b: recombinant interferon gamma 1b, given nebulized (protein, UniProt P01579 24-161, looked up)
Interferon gamma: QDPYVKEAENLKKYFNAGHSDVADNGTLFLGILKNWKEESDRKIMQSQIVSFYFKLFKNFKDDQSIQKSVETIKEDMNVKFFNSNKKKRDDFEKLTNYSVTDLNVQRKAIHELIQVMAELSPAAKTGKRKRSQMLFRG
In the case of B1, the IFN gamma signaling entry in data set [27] (10 TB patients, one month of nebulized therapy) is listed as “enhanced IFN-Y^− signaling”. For the same molecule, the “clearance of M. tuberculosis bacteria from the sputum” value in [27] (nebulized, added to DOTS, randomized controlled trial) is reported as “more rapid clearance”. Besides, the sputum result in data set [27] (open-label, nebulized, 5 patients with MDR-TB, after 1 month) was “clearing of the sputum”.
